Here are results for 1 compound from PMC10870750 (ACS Polymers Au, 2023).

Series [1] in a line: Dynamic light scattering. In kind it is physicochemical. The conditions noted are these: 200 μM in 10 mM PBS; from lack of reliable DLS data and visibly clear solutions.
Series [2] deals with human red blood cells (RBCs). The conditions noted are these: 50 μM; ref our previous study; cited from earlier work.

Positions of bridges follow the written chain, without caps; N, C: chain ends. Non-standard residues stand in square brackets, D forms with d. Residues, ends and D or L forms follow the SMILES beside them. S5 = C=CCCC[C@](C)(N)C(=O)O

For the compound `CC[C@H](C)[C@H](NC(=O)[C@H](C)NC(=O)[C@H](CCCCN)NC(=O)[C@H](CO)NC(=O)[C@H](CCC(=O)O)NC(=O)[C@@H]1CCCN1C(C)=O)C(=O)N[C@@H](CCCCN)C(=O)N[C@@]1(C)CCCC=CCCC[C@@](C)(C(=O)N[C@H](C(=O)N[C@@H](CO)C(=O)N[C@@H](CCCCN)C(=O)N[C@@H](CCC(=O)O)C(=O)N[C@@H](CCCNC(=N)N)C(=O)N[C@@H](CO)C(=O)N[C@@H](CCCCN)C(=O)N[C@@H](CCCNC(=N)N)C(=O)N[C@@H](CO)C(=O)N2CCC[C@H]2C(N)=O)C(C)C)NC(=O)[C@H](CCCCN)NC(=O)[C@H](CC(C)C)NC(=O)[C@H](CC(C)C)NC1=O` [stapled Ac-P9] (Ac-PESKAIK[S5]LLK[S5]VSKERSKRSP-NH2; staple 8-12), the “solubility / aggregation state in solution” value in series [1] is recorded as “soluble or exists in very small aggregates”. For the same compound, the hemolysis result in series [2] is “does not induce significant hemolysis”.
